Columns and labels:
sGC α1/β1 heterodimer = molecular target: T1, sGC α1/β1 heterodimer (Homo sapiens, UniProt Q02108+Q02153); assay: Cell-based sGC functional assay (CASA assay): cGMP generation in CHO-K1/sGC cells, HTRF detection; conditions: for Emax: CHO-K1, percent activation relative to standard Compound A in CHO-K1/sGC cells, read-out: % Act.; for EC50: inflection point (IP) of cGMP generation in CHO-K1/sGC cells, 4P fit, activity expressed as percentage of Compound A
T1 construct: expressed in transfected cells; host or cells: CHO-K1 (clone #7, CHO-K1/sGC)
T1 sequence (Q02108 1-690): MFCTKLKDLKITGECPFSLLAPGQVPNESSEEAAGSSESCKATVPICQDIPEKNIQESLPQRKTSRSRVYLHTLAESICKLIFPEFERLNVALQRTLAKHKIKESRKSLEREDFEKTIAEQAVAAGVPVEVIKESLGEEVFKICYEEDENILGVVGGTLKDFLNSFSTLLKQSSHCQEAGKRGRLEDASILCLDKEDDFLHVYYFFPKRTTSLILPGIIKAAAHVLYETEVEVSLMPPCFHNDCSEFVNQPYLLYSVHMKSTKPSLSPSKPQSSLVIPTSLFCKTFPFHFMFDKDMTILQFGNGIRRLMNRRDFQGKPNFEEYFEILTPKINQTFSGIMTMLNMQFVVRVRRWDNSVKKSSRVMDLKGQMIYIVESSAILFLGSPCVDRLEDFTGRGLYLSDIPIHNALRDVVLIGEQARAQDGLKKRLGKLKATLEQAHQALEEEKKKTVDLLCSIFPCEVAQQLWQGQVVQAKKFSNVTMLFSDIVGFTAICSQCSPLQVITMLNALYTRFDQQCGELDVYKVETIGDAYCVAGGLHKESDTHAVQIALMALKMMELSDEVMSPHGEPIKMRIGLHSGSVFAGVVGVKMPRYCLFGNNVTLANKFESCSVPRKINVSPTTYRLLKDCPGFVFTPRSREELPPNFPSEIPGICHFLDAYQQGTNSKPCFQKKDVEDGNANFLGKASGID
T1 sequence (Q02153 1-619): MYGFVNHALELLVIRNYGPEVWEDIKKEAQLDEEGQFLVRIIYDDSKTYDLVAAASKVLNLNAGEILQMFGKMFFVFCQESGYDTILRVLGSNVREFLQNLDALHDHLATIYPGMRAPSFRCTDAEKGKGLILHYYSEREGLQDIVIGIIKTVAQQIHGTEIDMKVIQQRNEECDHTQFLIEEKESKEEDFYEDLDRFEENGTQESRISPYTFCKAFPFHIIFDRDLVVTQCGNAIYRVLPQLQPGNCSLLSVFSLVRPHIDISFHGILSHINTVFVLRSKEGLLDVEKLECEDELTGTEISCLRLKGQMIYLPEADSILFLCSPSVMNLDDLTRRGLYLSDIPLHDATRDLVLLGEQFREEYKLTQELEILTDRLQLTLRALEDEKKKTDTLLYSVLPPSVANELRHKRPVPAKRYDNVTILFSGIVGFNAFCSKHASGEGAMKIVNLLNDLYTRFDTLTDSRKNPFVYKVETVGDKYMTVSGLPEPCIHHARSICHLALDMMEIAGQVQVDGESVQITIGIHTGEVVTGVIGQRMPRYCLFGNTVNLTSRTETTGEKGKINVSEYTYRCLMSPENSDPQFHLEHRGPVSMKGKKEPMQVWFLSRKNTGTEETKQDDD
Summary of the method: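 Stable CHO-K1/sGC cells in EBSS buffer with 5 mM MgCl2, 0.05% BSA and 0.5 mM IBMX were incubated with compound (2.5% DMSO final) ±1 μM DETA-NO for 1 hr at 37° C. cGMP was measured by HTRF. Activation is expressed as % of reference HDA Compound A maximum, with IP and max fold induction from a 4P fit.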

[1] = tested on: Spontaneously hypertensive rats (SHR); assay: Acute efficacy in spontaneously hypertensive rats (SHR): telemetry blood pressure lowering after a single oral dose; format: in vivo, rat
Summary of the method: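 Male SHR carrying aortic telemetry implants (14-day recovery) received a single oral gavage of compound or vehicle (10% transcutol/20% Cremophor/70% water). Conscious blood pressure was sampled 30 s every 10 min and averaged hourly; change was taken against the prior-day vehicle baseline, reported as maximum peak SBP decrease at a given PO dose (mpk).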

| SMILES | Emax (sGC α1/β1 heterodimer) | EC50 (sGC α1/β1 heterodimer) | Maximum peak decrease of systolic blood pressure (SBP) in SHR, Cat. ([1]; P.O. 3.0 mpk) | Maximum peak decrease of systolic blood pressure (SBP) in SHR, Cat. ([1]; P.O. 0.3 mpk) | Maximum peak decrease of systolic blood pressure (SBP) in SHR, Cat. ([1]; P.O. 1.0 mpk) |
| --- | --- | --- | --- | --- | --- |
| CCCc1nc(-c2nc(N)c3c(n2)NC(=O)C3(c2ccc(Cl)cc2F)C2CC2)cn2ccnc12 (stereo not drawn) [Example 360A, 4-amino-5-(4-chloro-2-fluorophenyl)-5-cyclopropyl-2-(8-propylimidazo[1,2-a]pyrazin-6-yl)-5H-pyrrolo[2,3-d]pyrimidin-6(7H)-one] | 129% | 43 nM | B (Category B=SBP in SHRs 20-40 mmHg) |  |  |
| CCCCc1nc(-c2nc(N)c3c(n2)NC(=O)C3(c2ccc(Cl)cc2F)C2CC2)cn2ccnc12 (stereo not drawn) [Example 369A, 4-amino-2-(8-butylimidazo[1,2-a]pyrazin-6-yl)-5-(4-chloro-2-fluorophenyl)-5-cyclopropyl-5H-pyrrolo[2,3-d]pyrimidin-6(7H)-one] | 109% | 13 nM |  | B (Category B=SBP in SHRs 20-40 mmHg) |  |

Now from value to compound, other results behind:

| Emax (sGC α1/β1 heterodimer) | EC50 (sGC α1/β1 heterodimer) | SMILES | Maximum peak decrease of systolic blood pressure (SBP) in SHR, Cat. ([1]; P.O. 3.0 mpk) | Maximum peak decrease of systolic blood pressure (SBP) in SHR, Cat. ([1]; P.O. 0.3 mpk) | Maximum peak decrease of systolic blood pressure (SBP) in SHR, Cat. ([1]; P.O. 1.0 mpk) |
| --- | --- | --- | --- | --- | --- |
| 187% | 239 nM | CCCCc1nc(-c2nc(N)c3c(n2)NC(=O)C3(c2ncc(Cl)cn2)C2CC2)cn2ccnc12 (stereo not drawn) [Example 372A, 4-amino-2-(8-butylimidazo[1,2-a]pyrazin-6-yl)-5-(5-chloropyrimidin-2-yl)-5-cyclopropyl-5H-pyrrolo[2,3-d]pyrimidin-6(7H)-one] |  |  | C (Category C=SBP in SHRs>40 mmHg) |
| 114% | 26 nM | Nc1nc(-c2cn3ccnc3c(CCCC(F)(F)F)n2)nc2c1C(c1ncc(Cl)cn1)(C1CC1)C(=O)N2 (stereo not drawn) [Example 373A, 4-amino-5-(5-chloropyrimidin-2-yl)-5-cyclopropyl-2-(8-(4,4,4-trifluorobutyl)imidazo[1,2-a]pyrazin-6-yl)-5H-pyrrolo[2,3-d]pyrimidin-6(7H)-one] |  | A (Category A=SBP in SHRs<20 mmHg) |  |
| 137% | 98 nM | Nc1nc(-c2cn3ccnc3c(CCCC(F)(F)F)n2)nc2c1C(c1ccccn1)(C1CC1)C(=O)N2 (stereo not drawn) [Example 383B, 4-Amino-5-cyclopropyl-5-(pyridin-2-yl)-2-(8-(4,4,4-trifluorobutyl)imidazo[1,2-a]pyrazin-6-yl)-5H-pyrrolo[2,3-d]pyrimidin-6(7H)-one] |  |  | B (Category B=SBP in SHRs 20-40 mmHg) |

— patent publication US9796733B2, “Imidazo-pyrazine derivatives useful as soluble guanylate cyclase activators” (Merck Sharp & Dohme Corp., priority 2014, dated 2017)
